{
  "source": "patent US20030129678A1",
  "about": "“Methods, pharmaceutical formulations and kits for identification of subjects at risk for cancer” (priority 1999, published 2003)",
  "key": {"A1 adenosine receptors": {"molecular_target": "T1, A1 adenosine receptors (Mus musculus, UniProt Q60612)", "T1 sequence (Q60612 1-326)": "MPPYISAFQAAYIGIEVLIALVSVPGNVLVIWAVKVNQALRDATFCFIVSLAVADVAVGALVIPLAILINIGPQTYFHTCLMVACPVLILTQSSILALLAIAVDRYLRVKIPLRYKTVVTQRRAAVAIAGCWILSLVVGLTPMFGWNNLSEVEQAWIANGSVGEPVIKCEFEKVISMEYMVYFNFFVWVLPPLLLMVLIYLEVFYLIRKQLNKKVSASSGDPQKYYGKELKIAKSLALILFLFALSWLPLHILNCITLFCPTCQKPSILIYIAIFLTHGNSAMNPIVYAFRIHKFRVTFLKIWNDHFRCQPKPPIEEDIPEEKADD", "test": "Competition experiments  against 125I-BWA844U in macrophage membranes", "assay_type": "binding", "protocol": "Non-specific binding is determined in presence of 1 mM theophylline. Membrane bound radioactivity is separated by filtration over a cell harvester. The data is analyzed by non-linear regression analysis using GraphPad prism software and the Ki value is calculated."}, "[1]": {"molecular_target": "T2, A1 adenosine receptor expression (Homo sapiens, UniProt P30542)", "T2 construct": "This same protocol is repeated using membranes from human macrophages (SC cells)", "T2 sequence (P30542 1-326)": "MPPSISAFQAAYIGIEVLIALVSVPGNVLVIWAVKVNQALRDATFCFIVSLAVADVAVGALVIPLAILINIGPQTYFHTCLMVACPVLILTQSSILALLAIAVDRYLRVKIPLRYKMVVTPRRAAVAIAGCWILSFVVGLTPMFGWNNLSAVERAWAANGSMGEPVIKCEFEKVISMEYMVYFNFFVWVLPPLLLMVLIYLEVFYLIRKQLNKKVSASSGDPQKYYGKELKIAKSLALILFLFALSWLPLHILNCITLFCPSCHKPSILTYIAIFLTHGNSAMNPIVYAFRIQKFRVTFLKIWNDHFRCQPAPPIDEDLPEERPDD", "test": "Saturation binding in human macrophages (SC) after cisplatin treatment", "assay_type": "cell-based", "conditions": "human macrophages (SC, ATCC); cisplatin 2.5 μM for 24 hours", "protocol": "Incubation of the macrophage fractions with the A1 adenosine receptor ligand ^125I-BWA844U (see Patel et al., J. Pharmacol. Exp. Ther. 33:585 (1988) in concentrations ranging from 1.25-20 nM was carried out at 37° C. for 1 hour. Non-specific binding is determined in the presence of 1 mM theophylline. Following incubation, membrane bound radioactivity is separated by filtration over a cell harvester and counted in a gamma counter. The data is analyzed by non-linear regression using GraphPad Prism software. Thc Bmax and kd values are calculated from the analyzed data.\nThis same protocol is repeated using membranes from human macrophages (SC cells)."}, "TNF-α": {"system": "TNF-α", "test": "Functional experiments: TNF-α release from macrophages (ELISA)", "assay_type": "cell-based, mouse", "protocol": "Macrophages are then challenged with 1 μM PMA in the above medium for 2 hours and then stimulated with different concentrations of (0-1 μM) of 2-chloro-N^6-cyclopentyl adenosine (CCPA) at 37° C. for 1-6 hours. The supernatant is collected and the TNF-α levels are estimated by commercially available ELISA kits (R & D Systems, Minneapolis, Minn.)."}, "[2]": {"system": "mouse P815 mastocytoma tumor cells", "test": "In vitro cytotoxicity (51Cr release), primed and activated mouse macrophages against P815 cells", "conditions": "mouse macrophages (IC-21); priming with PMA (1 μM), activation with CCPA (1 μM)", "quoted_text": "(§1) B-16 melanoma cells are washed with serum free RPMI medium by centrifugation. 25-30 μCi of Na ^51Cr is diluted to 1 ml of RPMI and transferred to the melanoma cells suspension. The melanoma cells are incubated with Na ^51Cr at 37° C. for 1 hour. The unincorporated radioactivity is removed by centrifugation at 1000×g for 10 minutes. The melanoma cells are allowed to leak for 2 hours and then washed again. The final suspension is diluted in RPMI. The cell number is counted in a hemocytometer.\n(§2) Macrophages are washed with medium containing 100 mM MgCl2, 2 U/ml adenosine deaminase and 10% fetal bovine serum. Macrophages are then challenged with 1 μM PMA in the above medium for 2 hours and then stimulated with different concentrations of (0-1 μM) of 2-chloro-N^6-cyclopentyl adenosine (CCPA) for 30 minutes. The macrophages are then incubated with ^51Cr-labelled B-16 melanoma cells at a ratio of 20:1. Six hours later, a fraction of the supernatant is aspirated and counted in a gamma counter.\n(§3) Total releasable counts are measured by lysing the melanoma cells in hypotonic medium.\n(§4) The results are expressed as percentage (%) ^51Cr release as follows: [formula]\nThis same protocol is repeated, except that P815 mouse mastocytoma tumor cells are used instead of the B-16 melanoma cells."}, "[3]": {"system": "A375 human melanoma tumor cells", "test": "In vitro cytotoxicity (51Cr release), primed and activated human macrophages against A375 cells", "conditions": "human macrophages (SC hematopoietic cell line and a healthy volunteer); priming with PMA (1 μm), activation with CCPA (1 μm)", "quoted_text": "as §1, §2, §3, §4"}, "[4]": {"system": "mouse B-16 melanoma cells", "test": "In vitro cytotoxicity (51Cr release), primed and activated mouse macrophages against B-16 melanoma cells", "conditions": "priming with PMA (1 μm), activation with CCPA (lam)", "quoted_text": "as §1, §2, §3, §4\nPercentage ^51 Cr release is a measure of the lysing of cells (i.e., killing of cells), and is therefore an indicia of cytotoxicity."}, "Nb2 lymphoma": {"system": "Nb2 lymphoma", "conditions": "cited from earlier work"}, "K-562 leukemia": {"system": "K-562 leukemia", "conditions": "cited from earlier work"}, "[5]": {"system": "LNCaP prostate carcinoma cells", "conditions": "cited from earlier work"}, "[6]": {"system": "normal murine bone marrow cells", "conditions": "cited from earlier work"}},
  "data": [
    {"compound": "MCP-1: human recombinant monocyte chemotactic protein, chemoattractive for monocytes", "values": [
      {"measurement": "affinity (Ki) in membranes from WBC264-9C macrophages compared with IC-21 macrophages", "setting": "A1 adenosine receptors; competition with 0.1-0.2 nM 125I-BWA844U", "value": "lower"}
    ]},
    {"compound": "N.N.[Cl][Pt][Cl]", "note": "[cisplatin]", "values": [
      {"measurement": "increase of A1 adenosine receptor expression (Bmax)", "setting": "[1]", "value": "approximately three-fold"},
      {"measurement": "effect of pretreatment on affinity of WBC264-9C macrophage membranes for MCP-1", "setting": "A1 adenosine receptors; cisplatin 2.5 μM for 24 hours", "value": "increases the affinity"},
      {"measurement": "effect of pretreatment on TNF-α release from WBC264-9C macrophages", "setting": "TNF-α; cisplatin 2.5 μM for 24 hours, then PMA and CCPA", "value": "increases TNF-α release"}
    ]},
    {"compound": "OC[C@H]1O[C@@H](n2cnc3c(NC4CCCC4)nc(Cl)nc32)[C@H](O)[C@@H]1O", "note": "[CCPA, 2-chloro-N^6-cyclopentyladenosine]", "values": [
      {"measurement": "TNF-α release in WBC264-9C macrophages compared with IC-21 macrophages", "setting": "TNF-α; priming with PMA 1 μM, activation with CCPA 0-1 μM, 1-6 hours", "value": "lower"},
      {"measurement": "cytotoxicity for mouse P815 mastocytoma tumor cells", "setting": "[2]", "value": "cytotoxic"},
      {"measurement": "cytotoxicity to A375 human melanoma tumor cells", "setting": "[3]", "value": "cytotoxic"},
      {"measurement": "cytotoxicity of mouse B-16 melanoma cells", "setting": "[4]; macrophages from LPS-resistant mice (WBC264-9C, ATCC)", "value": 20, "unit": "%"},
      {"measurement": "cytotoxicity of mouse B-16 melanoma cells", "setting": "[4]; macrophages from LPS-sensitive mice (IC-21, ATCC)", "value": 50, "unit": "%"}
    ]},
    {"compound": "Nc1ncnc2c1ncn2[C@@H]1O[C@H](CO)[C@@H](O)[C@H]1O", "note": "[adenosine]", "values": [
      {"measurement": "tumor cell growth", "setting": "Nb2 lymphoma", "value": "inhibits tumor cell growth"},
      {"measurement": "tumor cell growth", "setting": "K-562 leukemia", "value": "inhibits tumor cell growth"},
      {"measurement": "tumor cell growth", "setting": "[5]", "value": "inhibits tumor cell growth"},
      {"measurement": "proliferation", "setting": "[6]", "value": "stimulating proliferation"}
    ]}
  ]
}
